Reference: article PMC9525273 (Nature Communications, 2022)
Several values for one entry are separate records, joined by “and”; a condition that tells them apart may be missing. Equal entries are not always repeated. Where two headings read alike, the source gives them in different places.

Key:
Format in all cases: cell-based, Plasmodium falciparum
[1] = test system: Dd2 parasites; assay: P. falciparum proliferation assay (72 h, fluorescent DNA-intercalating dye); conditions: for Parasite proliferation (% of no-cipargamin control), MEAN: MEAN of 16 experiments
Protocol: (§1) For experiments with all other parasites, the effects of compounds of interest on parasite proliferation was measured in 96-well plates containing serial dilutions of the compounds in culture medium, with a fluorescent DNA-intercalating dye used to detect surviving parasites. The assays were initiated with erythrocytes infected with predominantly ring-stage parasites, and the starting parasitaemia and haematocrit were both 1%.

[2] = test system: Dd2-PfATP4^T418N,P990R parasites; assay: as above; conditions: for Parasite proliferation (% of no-cipargamin control), MEAN: MEAN of 16 experiments
Protocol: as §1

[3] = test system: Dd2-Polδ parasites; assay: as above
Protocol: as §1

[4] = test system: Dd2-Polδ-PfATP4^G358S parasites; assay: as above
Protocol: as §1

[5] = test system: HCR1 parasites (highly cipargamin-resistant clone 1); assay: as above; conditions: for Parasite proliferation (% of no-cipargamin control), MEAN: MEAN of 16 experiments; for IC50: Plasmodium falciparum
Protocol: as §1

[6] = test system: HCR2 parasites (highly cipargamin-resistant clone 2); assay: as above; conditions: for Parasite proliferation (% of no-cipargamin control), MEAN: MEAN of 16 experiments; for IC50: Plasmodium falciparum
Protocol: as §1

[7] = test system: NF54^CTL parasites; assay: P. falciparum proliferation assay (72 h, flow cytometry, SYBR Green I/MitoTracker); conditions: NF54CTL compared to NF54WT
How it was run: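 Predominantly ring-stage cultures at 0.3% parasitaemia, 1% haematocrit, in medium with 10% O+ human serum; compound exposure 72 h, DMSO <0.5% (v/v). Live parasites counted by flow cytometry with SYBR Green I and 200 nM MitoTracker Deep Red. IC50/IC90 from linear interpolation of dose-response data.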

SMILES: C[C@H]1Cc2c([nH]c3cc(Cl)c(F)cc23)[C@@]2(N1)C(=O)Nc1ccc(Cl)cc12 [Cipargamin]
- Mean IC50 value ± SEM for growth inhibition ([1]; Dd2, Supplementary Table 1, Set 1): subnanomolar
- Parasite proliferation (% of no-cipargamin control), MEAN ([1]; Dd2, [Cipargamin] 0.195312 nM): 100.9 % of no-cipargamin control
- Parasite proliferation (% of no-cipargamin control), MEAN ([1]; Dd2, [Cipargamin] 0.390625 nM): 94.5 % of no-cipargamin control
- Parasite proliferation (% of no-cipargamin control), MEAN ([1]; Dd2, [Cipargamin] 0.78125 nM): 30.2 % of no-cipargamin control
- Parasite proliferation (% of no-cipargamin control), MEAN ([1]; Dd2, [Cipargamin] 1.5625 nM): 3.4 % of no-cipargamin control
- Parasite proliferation (% of no-cipargamin control), MEAN ([1]; Dd2, [Cipargamin] 3.125 nM): 0.3 % of no-cipargamin control
- Parasite proliferation (% of no-cipargamin control), MEAN ([1]; Dd2, [Cipargamin] 6.25 nM): 0.5 % of no-cipargamin control
- Parasite proliferation (% of no-cipargamin control), MEAN ([1]; Dd2, [Cipargamin] 25 nM): 0.0247 % of no-cipargamin control
- IC50 ([1]; Plasmodium falciparum, DD2, read-out: IC50 values, MEAN, Dd2, MEAN, source data of Fig. 2): 0.00068 µM
- Parasite proliferation (% of no-cipargamin control), MEAN ([2]; Dd2-PfATP4T418N,P990R, [Cipargamin] 0.195312 nM): 100.7 % of no-cipargamin control
- Parasite proliferation (% of no-cipargamin control), MEAN ([2]; Dd2-PfATP4T418N,P990R, [Cipargamin] 0.390625 nM): 102.0 % of no-cipargamin control
- Parasite proliferation (% of no-cipargamin control), MEAN ([2]; Dd2-PfATP4T418N,P990R, [Cipargamin] 0.78125 nM): 99.8 % of no-cipargamin control
- Parasite proliferation (% of no-cipargamin control), MEAN ([2]; Dd2-PfATP4T418N,P990R, [Cipargamin] 1.5625 nM): 99.9 % of no-cipargamin control
- Parasite proliferation (% of no-cipargamin control), MEAN ([2]; Dd2-PfATP4T418N,P990R, [Cipargamin] 3.125 nM): 94.7 % of no-cipargamin control
- Parasite proliferation (% of no-cipargamin control), MEAN ([2]; Dd2-PfATP4T418N,P990R, [Cipargamin] 6.25 nM): 78.8 % of no-cipargamin control
- Parasite proliferation (% of no-cipargamin control), MEAN ([2]; Dd2-PfATP4T418N,P990R, [Cipargamin] 25 nM): 1.2 % of no-cipargamin control
- IC50 ([2]; Dd2-PfATP4T418N,P990R, single experiments, source data of Fig. 2 (nM in Supplementary Table 1), read-out: IC50 values): 7.9 nM
- IC50 ([2]; Plasmodium falciparum, DD2, Dd2-PfATP4T418N,P990R, MEAN, source data of Fig. 2, read-out: IC50 values, MEAN): 9.17 nM
- IC50 ([2]; Plasmodium falciparum, DD2, Dd2-PfATP4T418N,P990R, Supplementary Table 1, Set 1, read-out: Mean IC50 value ± SEM for growth inhibition): < 10 nM
- IC50 ([3]; Dd2-Polδ, single experiments, source data of Fig. 2 (nM in Supplementary Table 1), read-out: IC50 values): 1.4 nM
- IC50 ([3]; Plasmodium falciparum, DD2, Dd2-Polδ, MEAN, source data of Fig. 2, read-out: IC50 values, MEAN): 1.43 nM
- IC50 ([3]; Plasmodium falciparum, DD2, parental Dd2-Polδ, paired with MMV665949-selected Culture 1, n = 3, read-out: IC50 value): 0.57 ± 0.02 nM
- IC50 ([4]; Dd2-Polδ-PfATP4G358S, single experiments, source data of Fig. 2 (nM in Supplementary Table 1), read-out: IC50 values): 1140 nM and 1420 nM and 1580 nM and 1640 nM and 1670 nM and 1510 nM
- IC50 ([4]; Plasmodium falciparum, DD2, Dd2-Polδ-PfATP4G358S, MEAN, source data of Fig. 2, read-out: IC50 values, MEAN): 1420 nM
- IC50 ([4]; Plasmodium falciparum, DD2, Dd2-Polδ-PfATP4G358S, single experiments, source data of Fig. 2 (nM in Supplementary Table 1), read-out: IC50 values): 980 nM
- Parasite proliferation (% of no-cipargamin control), MEAN ([5]; HCR1, [Cipargamin] 100 nM): 98.5 % of no-cipargamin control
- Parasite proliferation (% of no-cipargamin control) ([5]; HCR1, [Cipargamin] 100 nM, single experiments 1-16): 100.9 % of no-cipargamin control and 100.0 % of no-cipargamin control and 87.1 % of no-cipargamin control and 88.2 % of no-cipargamin control
- Parasite proliferation (% of no-cipargamin control), MEAN ([5]; HCR1, [Cipargamin] 200 nM): 94.4 % of no-cipargamin control
- Parasite proliferation (% of no-cipargamin control), MEAN ([5]; HCR1, [Cipargamin] 400 nM): 91.8 % of no-cipargamin control
- Parasite proliferation (% of no-cipargamin control), MEAN ([5]; HCR1, [Cipargamin] 800 nM): 83.6 % of no-cipargamin control
- Parasite proliferation (% of no-cipargamin control), MEAN ([5]; HCR1, [Cipargamin] 1600 nM): 71.5 % of no-cipargamin control
- Parasite proliferation (% of no-cipargamin control), MEAN ([5]; HCR1, [Cipargamin] 3200 nM): 44.9 % of no-cipargamin control
- Parasite proliferation (% of no-cipargamin control), MEAN ([5]; HCR1, [Cipargamin] 6400 nM): 13.3 % of no-cipargamin control
- Parasite proliferation (% of no-cipargamin control), MEAN ([5]; HCR1, [Cipargamin] 25600 nM): -0.564 % of no-cipargamin control
- IC50 ([5]; HCR1, MEAN, source data of Fig. 2, read-out: IC50 values, MEAN): 2.84 µM
- IC50 ([5]; read-out: Mean IC50 value ± SEM for growth inhibition, HCR1, Supplementary Table 1, Set 1): 2.84 ± 0.19 µM
- Parasite proliferation (% of no-cipargamin control), MEAN ([6]; HCR2, [Cipargamin] 100 nM): 99.1 % of no-cipargamin control
- Parasite proliferation (% of no-cipargamin control) ([6]; HCR2, [Cipargamin] 100 nM, single experiments 1-16): 100.1 % of no-cipargamin control and 100.0 % of no-cipargamin control and 96.3 % of no-cipargamin control and 89.0 % of no-cipargamin control
- Parasite proliferation (% of no-cipargamin control), MEAN ([6]; HCR2, [Cipargamin] 200 nM): 93.8 % of no-cipargamin control
- Parasite proliferation (% of no-cipargamin control), MEAN ([6]; HCR2, [Cipargamin] 400 nM): 90.7 % of no-cipargamin control
- Parasite proliferation (% of no-cipargamin control), MEAN ([6]; HCR2, [Cipargamin] 800 nM): 85.4 % of no-cipargamin control
- Parasite proliferation (% of no-cipargamin control), MEAN ([6]; HCR2, [Cipargamin] 1600 nM): 71.9 % of no-cipargamin control
- Parasite proliferation (% of no-cipargamin control), MEAN ([6]; HCR2, [Cipargamin] 3200 nM): 46.7 % of no-cipargamin control
- Parasite proliferation (% of no-cipargamin control), MEAN ([6]; HCR2, [Cipargamin] 6400 nM): 13.6 % of no-cipargamin control
- Parasite proliferation (% of no-cipargamin control), MEAN ([6]; HCR2, [Cipargamin] 25600 nM): -0.466 % of no-cipargamin control
- IC50 ([6]; HCR2, MEAN, source data of Fig. 2, read-out: IC50 values, MEAN): 2.92 µM
- IC50 ([6]; read-out: Mean IC50 value ± SEM for growth inhibition, HCR2, Supplementary Table 1, Set 1): 2.92 ± 0.2 µM
- FC (IC50) [7]: 1.0 fold
